From ChEMBL document CHEMBL3860075, “Synthesis, characterization, and evaluation of (E)-methyl 2-((2-oxonaphthalen-1(2H)-ylidene)methylamino)acetate as a biological agent and an anion sensor” (Bioorg Med Chem, 2016)
Converted amounts (≈) assume the structure as drawn. The source made the active and inactive calls. No cut-off for these calls is given here.

How the values were obtained:
[1] = test system: Candida tropicalis; experiment: Antimicrobial activity against Candida tropicalis ATCC 13803 after 24 hrs by broth microdilution assay; assay type: functional; conditions: ATCC 13803, 24 h
[2] = test system: Bacillus spizizenii; experiment: Antimicrobial activity against Bacillus subtilis ATCC 6633 after 24 hrs by broth microdilution assay; assay type: functional; conditions: ATCC 6633, 24 h
[3] = test system: Enterococcus faecalis; experiment: Antimicrobial activity against Enterococcus faecalis ATCC 29212 after 24 hrs by broth microdilution assay; assay type: functional; conditions: ATCC 29212, 24 h
[4] = test system: Pseudomonas aeruginosa; experiment: Antimicrobial activity against Pseudomonas aeruginosa ATCC 254992 after 24 hrs by broth microdilution assay; assay type: functional; conditions: ATCC 254992, 24 h
[5] = test system: Proteus vulgaris; experiment: Antimicrobial activity against Proteus vulgaris ATCC 13315 after 24 hrs by broth microdilution assay; assay type: functional; conditions: ATCC 13315, 24 h
[6] = test system: Escherichia coli; experiment: Antimicrobial activity against Escherichia coli ATCC 35218 after 24 hrs by broth microdilution assay; assay type: functional; conditions: ATCC 35218, 24 h
[7] = Binding affinity to cyanide anion assessed as disappearance of peak at 430 nanometer at 5 10^-6M by UV-visible spectroscopic analysis
[8] = test system: Escherichia coli; experiment: Induction of oxidative cleavage of Escherichia coli supercoiled pBR322 DNA assessed as increase in nicked circular form at 25 uM after 3 hrs in presence of H2O2 by agarose gel electrophoretic analysis
[9] = Binding affinity to 0.5 equiv tetrabutylamonium fluoride anion assessed as decrease in N-H proton intensity by 1H NMR method
[10] = test system: Salmonella typhimurium; experiment: Genotoxicity in Salmonella typhimurium TA98 at 0.5 to 500 ppm per plate in absence of S9 fraction by Ames test; assay type: toxicity, organism-based; conditions: salmonella enterica subsp. enterica serovar typhimurium
[11] = test system: Staphylococcus aureus; experiment: Antimicrobial activity against Staphylococcus aureus ATCC 25923 after 24 hrs by broth microdilution assay; assay type: functional; conditions: ATCC 25923, 24 h
[12] = Binding affinity to cyanide anion assessed as compound color change from colorless to yellow at compound:anion ratio of 1:1 under natural light by colorimetric method
[13] = test system: Candida albicans; experiment: Antimicrobial activity against Candida albicans ATCC 60193 after 24 hrs by broth microdilution assay; assay type: functional; conditions: ATCC 60193, 24 h
[14] = test system: Salmonella typhimurium; experiment: Genotoxicity in Salmonella typhimurium TA100 at 0.5 to 500 ppm per plate in absence of S9 fraction by Ames test; assay type: toxicity, organism-based; conditions: salmonella enterica subsp. enterica serovar typhimurium
[15] = test system: Escherichia coli; experiment: Antimicrobial activity against Escherichia coli ATCC 25922 after 24 hrs by broth microdilution assay; assay type: functional; conditions: ATCC 25922, 24 h
[16] = test system: Escherichia coli; experiment: Induction of hydrolytic cleavage of Escherichia coli supercoiled pBR322 DNA assessed as increase in nicked circular form at 200 uM after 3 hrs by agarose gel electrophoretic analysis
[17] = Binding affinity to 1 equiv tetrabutylamonium fluoride anion assessed as disappearance of peak by 1H NMR method
[18] = species on record: Bos taurus; experiment: Binding affinity to calf thymus DNA assessed as bathochromism at 3 10^-5M after 5 mins by UV-visible spectroscopic analysis
[19] = species on record: Bos taurus; experiment: Binding affinity to calf thymus DNA assessed as formation of intense band at 260 nanometer at 3 10^-5M after 5 mins by UV-visible spectroscopic analysis
[20] = Binding affinity to cyanide anion assessed as compound color change from colorless to yellow at compound:anion ratio of 1:1 under UV light by colorimetric method

| Structure (SMILES) | MIC [1] | MIC [2] | MIC [3] | MIC [4] | MIC [5] | MIC [6] | Activity [7] | Activity [8] | Activity [9] | Activity [10] | MIC [11] | Activity [12] | MIC [13] | Activity [14] | MIC [15] | Activity [16] | Activity [17] | Activity [18] | Activity [19] | Activity [20] |
| --- | --- | --- | --- | --- | --- | --- | --- | --- | --- | --- | --- | --- | --- | --- | --- | --- | --- | --- | --- | --- |
| OC(Cn1cncn1)(Cn1cncn1)c1ccc(F)cc1F [FLUCONAZOLE] | 32 µg/mL (≈ 104 µM) |  |  |  |  |  |  |  |  |  |  |  |  |  |  |  |  |  |  |  |
| CC1(C)S[C@@H]2[C@H](NC(=O)[C@H](N)c3ccccc3)C(=O)N2[C@H]1C(=O)O [AMPICILLIN] |  | 1 µg/mL (≈ 2.86 µM) | 2 µg/mL (≈ 5.72 µM) | 2 µg/mL (≈ 5.72 µM) | 2 µg/mL (≈ 5.72 µM) |  |  |  |  |  |  |  |  |  |  |  |  |  |  |  |
| COC(=O)CN/C=C1/C(=O)C=Cc2ccccc21 | 128 µg/mL (≈ 526 µM) | 128 µg/mL (≈ 526 µM) | 256 µg/mL (≈ 1050 µM) | 128 µg/mL (≈ 526 µM) | 256 µg/mL (≈ 1050 µM) | 256 µg/mL (≈ 1050 µM) | Active | Active | Active | Non-Toxic | 128 µg/mL (≈ 526 µM) | Active | 128 µg/mL (≈ 526 µM) | > 40% | 256 µg/mL (≈ 1050 µM) | Active | Active | 1 to 4 nm | Active | Active |
